Experimental findings from patent US9924721B2 (priority 2013, dated 2018) are described below.

Data set [1] deals with Phytophthora infestans. Put plainly: microbe, parasite or virus in culture. Format: cell-based. The note with it: for Eff. % (inhibition of fungal growth): 8 days incubation.
For another data set, the system named is Pythium ultimum. Put plainly: Pythium ultimum in vitro cell test. Format: cell-based. The note with it: 4 days incubation. How it is done:
Pythium ultimum In Vitro Cell Test
• Solvent: DMSO • Culture medium: 14.6 g anhydrous D-glucose (VWR), 7.1 g Mycological Peptone (Oxoid), 1.4 g granulated Yeast Extract (Merck), QSP liter • Inoculum: mycelial suspension
Fungicides were solubilized in DMSO and the solution used to prepare the required range of concentrations. The final concentration of DMSO used in the assay was ≤1%.
Inoculum was prepared from a pre-culture of P. ultimum grown in liquid medium by homogenization using a blender. The concentration of ground mycelium in the inoculum was estimated and adjusted to the desired optical density (OD).
Fungicides were evaluated for their ability to inhibit mycelium growth in liquid culture assay. The compounds were added in the desired concentrations to culture medium containing the mycelial suspension. After 4 days of incubation, the fungicidal efficacy of compounds was determined by spectrometric measurement of mycelium growth. Inhibition of fungal growth was determined by comparing the absorbance values in wells containing the fungicides with the absorbance in control wells without fungicides.

Another data set deals with Plasmopara viticola. The data set can be described thus: Plasmopara test (grapevines)/preventive. To be noted: spray, evaluated 6 days after inoculation. Format: in vivo. How it is done:
Plasmopara Test (Grapevines)/Preventive
• Solvent: 24.5 parts by weight of acetone • 24.5 parts by weight of dimethylacetamide • Emulsifier: 1 part by weight of alkylaryl polyglycol ether
To produce a suitable preparation of active compound, 1 part by weight of active compound is mixed with the stated amounts of solvent and emulsifier, and the concentrate is diluted with water to the desired concentration.
To test for preventive activity, young plants are sprayed with the preparation of active compound at the stated rate of application. After the spray coating has dried on, the plants are inoculated with an aqueous spore suspension of Plasmopara viticola and then remain for 1 day in an incubation cabinet at approximately 20° C. and a relative atmospheric humidity of 100%. The plant is subsequently placed for 4 days in a greenhouse at approximately 21° C. and a relative atmospheric humidity of approximately 90%. The plants are then misted and placed for 1 day in an incubation cabinet.
The test is evaluated 6 days after the inoculation. 0% means an efficacy which corresponds to that of the untreated control, while an efficacy of 100% means that no disease is observed.

For data set [2] the following is noted: pH 2.7.
Data set [3] deals with Phytophthora infestans. The format is in vivo. The note with it: tomatoes, spray, evaluated 3 days after inoculation.
The next data set in a line: physchem. The note with it: pH 2.7.
The mark [4] stands for this setting: 0.25 μg/mL of active ingredient.

Like-named read-outs stand apart in the source and are kept apart here. Marks after values point to notes of the source that are not given here.

Consider `C#CCOc1cccc(F)c1C1CC(c2csc(C3CCN(C(=O)C(Br)C(=O)OC(C)C)CC3)n2)=NO1` (stereo not drawn) [Example I-38], for which the “Eff. % (inhibition of fungal growth)” value amounted to 100% with Phytophthora infestans [1] (setting [4]) and 99% in the data set on Pythium ultimum (of active ingredient). Besides, the “Eff. % (preventive efficacy)” value in the data set with Plasmopara viticola (1 ppm of active ingredient) stood at 93%. Also, in data set [2], the “Log P” value is 3.30^[a].
As usually defined, the inhibition is the relative decrease from the control value, in per cent. By chromatographic logP is commonly meant a lipophilicity value derived from retention on a column. On to `C#CCOc1ccccc1C1CC(c2csc(C3CCN(C(=O)CC(=O)OCC)CC3)n2)=NO1` (stereo not drawn) [Example I-41, ethyl 3-oxo-3-[4-(4-{5-[2-(prop-2-yn-1-yloxy)phenyl]-4,5-dihydro-1,2-oxazol-3-yl}-1,3-thiazol-2-yl)piperidin-1-yl]propanoate], for which the inhibition at 20 µg/mL in the data set on Phytophthora infestans [1] (Phytophthora infestans, 192 h, read-out: Eff. % (inhibition of fungal growth)) stood at 100%; with Pythium ultimum (Globisporangium ultimum, 96 h, 20 μg/mL of active ingredient, read-out: Eff. % (inhibition of fungal growth)), 99%. Moreover, the “Eff. % (preventive efficacy)” value in the data set with Phytophthora infestans [3] (1 ppm of active ingredient) worked out at 94%; with Plasmopara viticola (1 ppm of active ingredient) it was 91%. In “physchem”, this compound registered a chromatographic logP of 2.7.
On to `C#CCOc1cccc(F)c1C1CC(c2csc(C3CCN(C(=O)C(C(=O)OCCOC)n4nc(C(F)F)cc4C(F)F)CC3)n2)=NO1` (stereo not drawn) [Example I-02], for which the “Eff. % (inhibition of fungal growth)” value in the data set with Phytophthora infestans [1] (setting [4]) came to 100%; in the data set with Pythium ultimum (of active ingredient), 96%. The “Eff. % (preventive efficacy)” value was 96% in the data set on Phytophthora infestans [3] (100 ppm of active ingredient) and 100% with Plasmopara viticola (100 ppm of active ingredient). Also, the “Log P” value in data set [2] was 3.37^[a].
For the compound `C#CCOc1cccc(F)c1C1CC(c2csc(C3CCN(C(=O)CC(=O)OC(C)C)CC3)n2)=NO1` (stereo not drawn) [Example I-44], the “Eff. % (inhibition of fungal growth)” value is recorded as 100% in the data set on Phytophthora infestans [1] (20 μg/mL of active ingredient) and 99% in the data set with Pythium ultimum (20 μg/mL of active ingredient). Moreover, the “Eff. % (preventive efficacy)” value with Plasmopara viticola (1 ppm of active ingredient) is listed as 82%. The “Log P” value in data set [2] is 2.85^[a].
Turning to `CC(C)OC(=O)C(C(=O)N1CCC(c2nc(C3=NOC(c4ccccc4OS(C)(=O)=O)C3)cs2)CC1)n1nc(C(F)F)cc1C(F)F` (stereo not drawn) [Example I-01], the figures for the “Eff. % (inhibition of fungal growth)” value in the data set on Phytophthora infestans [1] (20 μg/mL of active ingredient) and with Pythium ultimum (20 μg/mL of active ingredient) were 100% and 95%, respectively. Moreover, in the data set on Phytophthora infestans [3] (100 ppm of active ingredient), the “Eff. % (preventive efficacy)” value came to 70%. The “Log P” value in data set [2] was 3.53^[a].
Regarding `C#CCOc1cccc(F)c1C1CC(c2csc(C3CCN(C(=O)CC(=O)OCC)CC3)n2)=NO1` (stereo not drawn) [Example I-42], the “Eff. % (inhibition of fungal growth)” value with Phytophthora infestans [1] (20 μg/mL of active ingredient) and in the data set on Pythium ultimum (20 μg/mL of active ingredient) was 100% each time. Further, the entries for the “Eff. % (preventive efficacy)” value in the data set on Phytophthora infestans [3] (1 ppm of active ingredient) and in the data set on Plasmopara viticola (1 ppm of active ingredient) were 94% and 99%, respectively. Moreover, the “Log P” value in data set [2] was 2.58^[a].
As for `C#CCOc1cccc(Cl)c1C1CC(c2csc(C3CCN(C(=O)C(C(=O)OCC)n4nc(C(F)F)cc4C(F)F)CC3)n2)=NO1` (stereo not drawn) [Example I-16], the “Eff. % (inhibition of fungal growth)” value with Phytophthora infestans [1] (20 μg/mL of active ingredient) came to 100%; with Pythium ultimum (20 μg/mL of active ingredient), 94%. The “Eff. % (preventive efficacy)” value was found to be 98% in the data set with Phytophthora infestans [3] (100 ppm of active ingredient) and 95% in the data set on Plasmopara viticola (100 ppm of active ingredient). For the same compound, in data set [2], the “Log P” value is 3.82^[a].
On to `CCOC(=O)C(C(=O)N1CCC(c2nc(C3=NOC(c4c(Cl)cccc4OS(C)(=O)=O)C3)cs2)CC1)n1nc(C(F)F)cc1C(F)F` (stereo not drawn) [Example I-08], for which the results for the “Eff. % (inhibition of fungal growth)” value in the data set on Phytophthora infestans [1] (20 μg/mL of active ingredient) and in the data set on Pythium ultimum (20 μg/mL of active ingredient) were 99% and 87%, respectively. The “Eff. % (preventive efficacy)” value worked out at 95% in the data set with Phytophthora infestans [3] (100 ppm of active ingredient) and 98% in the data set with Plasmopara viticola (100 ppm of active ingredient). Moreover, the “Log P” value in data set [2] was 3.50^[a].
As to `C#CCOc1cccc(Cl)c1C1CC(c2csc(C3CCN(C(=O)CC(=O)OCC)CC3)n2)=NO1` (stereo not drawn) [Example I-51], the “Eff. % (inhibition of fungal growth)” value in the data set with Phytophthora infestans [1] (20 μg/mL of active ingredient) turned out to be 100%; with Pythium ultimum (20 μg/mL of active ingredient), 95%. The “Eff. % (preventive efficacy)” value with Plasmopara viticola (1 ppm of active ingredient) came to 94%. Moreover, in data set [2], the “Log P” value is 2.81^[a].
In the case of `CCOC(=O)C(C(=O)N1CCC(c2nc(C3=NOC(c4c(F)cccc4OS(C)(=O)=O)C3)cs2)CC1)n1nc(C(F)F)cc1C(F)F` (stereo not drawn) [Example I-03], the “Eff. % (inhibition of fungal growth)” value with Phytophthora infestans [1] (20 μg/mL of active ingredient) turned out to be 99%; with Pythium ultimum (20 μg/mL of active ingredient) it was 96%. The “Eff. % (preventive efficacy)” value in the data set with Phytophthora infestans [3] (100 ppm of active ingredient) is reported as 95%; in the data set with Plasmopara viticola (100 ppm of active ingredient) it was 98%. For the same compound, the “Log P” value in data set [2] was 3.29^[a].
Regarding `COCCOC(=O)C(C(=O)N1CCC(c2nc(C3=NOC(c4ccccc4OS(C)(=O)=O)C3)cs2)CC1)n1nc(C(F)F)cc1C(F)F` (stereo not drawn) [Example I-05], the “Eff. % (inhibition of fungal growth)” value with Phytophthora infestans [1] (setting [4]) came to 100%; in the data set on Pythium ultimum (20 μg/mL of active ingredient) it was 87%. The “Eff. % (preventive efficacy)” value was 96% in the data set on Phytophthora infestans [3] (100 ppm of active ingredient) and 95% with Plasmopara viticola (100 ppm of active ingredient). The “Log P” value in data set [2] was 3.14^[a].
